According to patent US7968556B2, “Heteroaryl compounds, compositions thereof, and methods of treatment therewith” (Signal Pharmaceuticals, LLC, priority 2006, dated 2011):

What was measured:
mTOR = mTOR (Homo sapiens, UniProt P42345); test: mTOR HTR-FRET Assay; format: biochemical
Method in brief: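 TOR enzyme fraction preincubated 30 min at room temperature with compound, then reaction started with GST-p70S6 kinase fragment substrate (97 nM working stock) plus ATP/Mn2+ and run 2 h at room temperature in Tris pH 7.4 buffer. Stopped with EDTA; phospho-substrate detected by HTRF antibody reagent after 5 h to overnight.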

Tyk2 = target: T1, Tyk2 (Homo sapiens, UniProt P29597); test: Tyk2 HTRF Assay; format: biochemical
T1 construct: 450 ng/ml TYK2 KD (Cama Biosciences 08-147 Lot 06CBS-3022D); purchased Cama Biosciences (so in the source)
T1 sequence (P29597 897-1176 limits assumed): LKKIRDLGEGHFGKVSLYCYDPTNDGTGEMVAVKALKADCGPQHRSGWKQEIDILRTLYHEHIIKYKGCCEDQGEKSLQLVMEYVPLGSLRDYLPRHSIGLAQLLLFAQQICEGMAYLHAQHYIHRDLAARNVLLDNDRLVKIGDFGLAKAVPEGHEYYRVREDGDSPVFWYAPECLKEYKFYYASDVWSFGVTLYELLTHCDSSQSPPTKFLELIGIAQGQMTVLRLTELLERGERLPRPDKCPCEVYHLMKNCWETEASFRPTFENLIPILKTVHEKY
Method: The following is an example of an assay that can be used to determine the Tyk2 inhibitory activity of a test compound.
25 μl/well DMSO is added to Columns 2 and 14 (except 28.5 μl is added to well P14 of Greiner 384-well polypropylene plate). 20 μl/well DMSO is added to all remaining wells.
5 mM compound solutions are added by addition of 5 μl of 30 mM compound to 25 μl DMSO in Columns 2 and 14 of plate. 1.5 mM reference control is prepared by addition of 1.5 μl of 30 mM JAK3 Inhibitor VI to 28.5 μl DMSO in Well P14.
(§1) Serial dilution is then performed by the following steps: (i) Compounds in Column 2 are mixed by pipetting 20 μl up and down 6X; (ii) 10 μl/well compounds in DMSO are transferred from one column to the next column for Columns 2-11; (iii) wells are mixed by pipetting 20 μl up and down 6×; (iv) tips are washed 3×25 μl DMSO, 2×25 μl next DMSO; (v) steps i-iv repeated for Columns 14-23.
(§2) The following buffers are prepared:
Assay Buffer: 50 mM HEPES pH 7.6; 1 mM DTT; 10 mM MgCl2; 0.01% Triton X100; 0.01% BSA; and 0.1 mM EDTA.
Kinase in Assay Buffer: 450 ng/ml TYK2 KD (Cama Biosciences 08-147 Lot 06CBS-3022D).
Substrate/Detection Mixture (1×ATP) in Assay Buffer: 188 nM DyLight 647-Streptavidin (Pierce 21824); 5 μM Biotin-EQEDEPEGDYFEWLE (Lyn Substrate Peptide); 750 ng/ml Eu-anti-phospho-Tyrosine (PerkinElmer AD0069); 62.5 μM ATP; 80 nM Substrate Peptide (American Peptide Company 332722).
Substrate/Detection Mixture (20×ATP) in Assay Buffer: 188 nM DyLight 647-Streptavidin; 5 μM Biotin-EQEDEPEGDYFEWLE; 750 ng/ml Eu-anti-phospho-Tyrosine; 1250 μM ATP; 80 nM Substrate Peptide.
14.5 μl/well Enzyme Mix or Dilution Buffer (Background Controls) is added to Costar 384 well black plates.
(§3) Compound addition and mixture is performed by the following steps: (i) 0.5 μl/well DMSO/compounds in DMSO is transferred from Greiner 384-well polypropylene plate to a plate containing 14.5 μl/well Enzyme Mix and Dilution Buffer; (ii) mixed by pipetting 10 μl up and down 4×; (iii) tips are washed 4×10 μl in DMSO, 2×20 μl in other DMSO; (iv) steps i-iii are repeated until all plates are completed.
10 μl/well Substrate/Detection Mixtures is added and incubated at room temperature 2 hours (on shaker for first 2+ minutes).
10 μl/well 50 mM EDTA/0.01% Triton X100 is added and incubated >15 minutes at room temperature (on shaker for first 2+ minutes).
Plates are read at 665 nm and 620 nm emission on Analyst GT protocol HTRF_SP_A (Counts= 665/620×10000).

Syk = target: T2, Syk (Homo sapiens, UniProt P43405); test: Syk HTRF Assay; format: biochemical
T2 construct: purchased Cama Biosciences (so in the source)
Method: 5 μl/well DMSO is added to Column 2 Wells A-0 and 29.5 μl to well P2 of Greiner 384-well polypropylene plate. 20 μl/well DMSO is added to Columns 1 and 3-12.
25 mM compound solutions are prepared by the addition of 25 μl of 30 mM compound to Column 2 and 0.5 μl 30 mM reference control to well P2.
as §1, with “compounds” for “Compounds”, “6×;” for “6X;”, “tips” for “tips are”, “DMSO.” for “DMSO; (v) steps i-iv repeated for Columns 14-23.”
as §2
Dilution Buffer: 50 mM HEPES pH 7.6; 1 mM DTT; 10 mM MgCl2; 0.01% Triton X100; 0.01% BSA; 0.1 mM EDTA.
Enzyme Mix in Dilution Buffer: 8.621 ng/ml Syk (Cama Biosciences 08-176).
Start Mix in Dilution Buffer: 87.5 μM ATP; 80 nM Substrate Peptide (American Peptide Company 332722).
14.5 μl/well Enzyme Mix or Dilution Buffer (Background Controls) is added to Costar 384-well black plates.
as §3, with “DMSO” for “DMSO is”, “to left half of assay” for “to a”, “(ii) Mix” for “(ii) mixed”, “repeated with transfer to right half of assay plate; (v) steps i-iv are repeated with each compound/assay plate” for “repeated”
10 μl/well Start Mix is added and incubated at room temperature on shaker for 2 minutes (1 hour total reaction time).
Stop Solution in Dilution Buffer: 120 mM EDTA
Antibody Mix in Dilution Buffer: 4.86 μg/ml DyLight 647 Streptavidin (Pierce 21824); 1 μg/ml Lance Eu-Anti-Phosphotyrosine (PerkinElmer AD0069).
5 μl/well[…] is added and incubated at room temperature on shaker for 2 minutes.
[…] Antibody Mix is added and Incubated at room temperature on shaker for 2 minutes (4 hours to overnight total time).
Plates are read at 665 nm and 620 nm emission on Analyst GT protocol HTRF_SP_A or EnVision protocol Steve's TR-FRET.

| SMILES | IC50 (mTOR) | IC50 (Tyk2) | melting point | IC50 (Syk) |
| --- | --- | --- | --- | --- |
| NC(=O)c1nc(-c2ccc3nc[nH]c3c2)nc2c1[nH]c(=O)n2-c1ccccc1F [Compound 101, 2-(1H-benzo[d]imidazol-6-yl)-9-(2-fluorophenyl)-8-oxo-8,9-dihydro-7H-purine-6-carboxamide] | 0.1 to 5 µM |  | 278 °C | 10.1 to 20 µM |
| COc1ccccc1-n1c(=O)[nH]c2c(C(N)=O)nc(-c3cccc(O)c3F)nc21 [Compound 77, 2-(2-Fluoro-3-hydroxyphenyl)-9-(2-methoxyphenyl)-8-oxo-7-hydropurine-6-carbox-amide] | 0.1 to 5 µM | 0.1 to 5 µM | > 300 °C |  |
| COc1ccccc1-n1c(=O)[nH]c2c(C(N)=O)nc(-c3cccc(O)c3Cl)nc21 [Compound 54, 2-(2-Chloro-3-hydroxyphenyl)-9-(2-methoxyphenyl)-8-oxo-7-hydropurine-6-carbox amide] | 0.1 to 5 µM |  | 331 to 334 °C | 0.1 to 5 µM |

The next lines start with the values.

| IC50 (mTOR) | IC50 (Tyk2) | melting point | IC50 (Syk) | SMILES |
| --- | --- | --- | --- | --- |
| > 30 µM | > 30 µM | 339 °C |  | CNC(=O)c1nc(-c2cccc(O)c2)nc2c1[nH]c(=O)n2-c1ccccc1OC [Compound 42, [2-(3-Hydroxyphenyl)-9-(2-methoxyphenyl)-8-oxo(7-hydropurin-6-yl)]-N-methylcarbox-amide] |
| 0.1 to 5 µM | 10.1 to 20 µM | 366 to 368 °C |  | NC(=O)c1nc(-c2cccc(O)c2)nc2c1[nH]c(=O)n2[C@H]1CC[C@H](O)CC1 [Compound 47, 9-(trans-4-Hydroxycyclohexyl)-2-(3-hydroxyphenyl)-8-oxo-8,9-dihydro-7H-purine-6-carboxamide] |
|  |  | 284 to 285 °C | > 30 µM | COc1ccccc1-n1c(=O)[nH]c2c(C(N)=O)nc(-c3cccc(N)c3)nc21 [Compound 38, 2-(3-aminophenyl)-9-(2-methoxyphenyl)-8-oxo-8,9-dihydro-7H-purine-6-carboxamide] |
| 0.1 to 5 µM | 0.1 to 5 µM | 290 to 292 °C |  | NC(=O)c1nc(-c2cccc(O)c2)nc2c1[nH]c(=O)n2-c1c(Cl)cccc1Cl [Compound 69, 9-(2,6-Dichlorophenyl)-2-(3-hydroxyphenyl)-8-oxo-7-hydropurine-6-carboxamide] |
